Results: patent US4757061A, “4-amino androstendione derivatives and process for their preparation” (Farmitalia Carlo Erba, S.p.A., priority 1985, dated 1988)

Legend:
[1] = target: T1, human placental aromatase (Homo sapiens, UniProt P11511); test: Aromatase inhibition in vitro (human placental aromatase, 3H2O release assay); type: biochemical
T1 construct: The enzyme system was isolated from the microsomal fraction of human placental tissue; from tissue; host or cells: human placental tissue, microsomal fraction
T1 sequence (P11511 1-503): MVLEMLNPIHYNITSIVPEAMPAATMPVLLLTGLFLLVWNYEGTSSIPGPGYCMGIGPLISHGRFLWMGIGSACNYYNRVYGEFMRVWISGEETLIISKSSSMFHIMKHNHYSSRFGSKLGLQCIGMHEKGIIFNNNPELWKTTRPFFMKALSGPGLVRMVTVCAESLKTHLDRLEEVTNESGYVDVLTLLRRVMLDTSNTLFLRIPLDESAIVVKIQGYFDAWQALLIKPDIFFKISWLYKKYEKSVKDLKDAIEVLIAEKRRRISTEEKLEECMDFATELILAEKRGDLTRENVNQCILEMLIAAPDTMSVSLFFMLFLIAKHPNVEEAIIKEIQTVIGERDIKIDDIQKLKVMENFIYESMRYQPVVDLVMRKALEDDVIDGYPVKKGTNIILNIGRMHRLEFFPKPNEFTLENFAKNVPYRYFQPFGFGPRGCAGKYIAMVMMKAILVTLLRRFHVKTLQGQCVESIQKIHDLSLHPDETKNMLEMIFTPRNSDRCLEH
Protocol: Aromatase inhibition by the compounds of the present invention was determined, e.g., both in vitro (human placental aromatase) and in vivo (ovarian aromatase activity) in rats.
(a) Aromatase inhibition in vitro
(§1) The enzyme system was isolated from the microsomal fraction of human placental tissue according to standard procedure. The assay of Thompson and Siiteri [E. A. Thompson and P. K. Siiteri, J. Biol. Chem. 249, 5364, (1974)] which determines the rate of aromatization as measured by the liberation of ^3 H2 O from 4-[1β,2β-^3 H] androsten-3,17-dione was used. All incubations were carried out in a shaking water bath at 37° C. in air in 10 mM potassium phosphate buffer, pH 7.5, which contained 100 mM KCl, 1 mM EDA and 1 mM dithiothreitol. The experiments were carried out in 1 ml incubation volume containing 50 nM 4-[…], various concentrations of the inhibitors, 100 μM NADPH and 0.05 mg of microsomal proteins. After 15 minutes of incubation the reaction was stopped by the addition of chloroform (5 ml). After centrifugation at 1500×g for 5 minutes, aliquots (0.5 ml) were removed from the water phase for determination of ^3 H2 O formed. The concentration of each compound required to reduce control aromatase by 50% (IC50) was determined by plotting % inhibition versus log of inhibitor concentration. The relative potency of each compound versus 4 OH-A was calculated according to the relation: [formula] (b) Aromatase inhibition in vivo in rats Adult female rats were twice treated subcutaneously with 100 I.U. pregnant mares' serum gonadotropin (PMSG) at 4 days' interval, in order to increase ovarian aromatase activity, according to Brodie's procedure [A. M. H. Brodie et al., Steroids 38, 693, (1981)]. Three days after the second PMSG treatment, groups of 6 animals each were given orally the vehicle (0.5% methocel) or the inhibitor at 30 mg/kg. Animals were killed 24 hours later, microsomes were isolated from ovaries and their aromatase activity determined using a method similar to that described in (a).

[2] = cited from earlier work
rat ovarian aromatase = test: Aromatase inhibition in vivo in rats (ovarian aromatase activity); conditions: for % Aromatase inhibition at 30 mg/kg p.o.: PMSG-treated adult female rats, ovaries taken 24 hours later; for In vivo effectiveness by oral route: 30 mg/kg
Excerpt: The aromatase inhibitors for formula (I) can find also use in the control of reproduction: indeed a decrease in oestrogen levels in vivo results in gonad-inhibiting activity and in insufficient uterine development; aromatase inhibitors may be at the same time implantation inhibitors. Another application of the compounds of the invention is in the treatment of prostatic hypertrophy or hyperplasia, related to an excessive oestrogen production and the shifting of the oestrogen/androgen ratio to higher values. Furthermore, the compounds of the invention, producing decrease in estradiol formation, may be useful for the treatment of male fertility disturbances (Drugs 28: 263, 1984). […] Accordingly, decreased estradiol formation, as can be obtained through administration of the compounds of the invention, leads to an improvement of both sperm count and fertility, in patients with infertility due to oligozoospermia. Aromatase inhibition by the compounds of the present invention was determined, e.g., both in vitro (human placental aromatase) and in vivo (ovarian aromatase activity) in rats.
as §1

[3] = Resistance to hepatic metabolization; conditions: oral route

Row | SMILES | IC50 [1] | Conjugation after oral administration [2] | % Aromatase inhibition at 30 mg/kg p.o. (rat ovarian aromatase) | In vivo effectiveness by oral route (rat ovarian aromatase) | Resistance to hepatic metabolization [3] | Relative potency (versus 4-OH-A) [1] | Aromatase inhibition in vitro ([1]; in vitro) | In vitro potency relative to 4-OH-A ([1]; in vitro) | Aromatase inhibition in vivo (rat ovarian aromatase; in vivo) | In vivo activity compared to androsta-1,4-dien-3,17-dione (rat ovarian aromatase; in vivo) | Potency relative to androsta-1,4-dien-3,17-dione (rat ovarian aromatase; stated as in vivo) | Potency relative to Δ^1-testololactone (times more potent) (rat ovarian aromatase; stated as in vivo)
1 | C[C@]12CCC(=O)C(O)=C1CC[C@@H]1[C@@H]2CC[C@]2(C)C(=O)CC[C@@H]12 [Example 4-OH-A, 4-hydroxyandrost-4-en-3,17-dione, reference compound] | 44 nM | extensively conjugated after oral administration | inactive | ineffective |  |  |  |  |  |  |  | 
2 | C[C@]12CCC(=O)C(N)=C1C=C[C@@H]1[C@@H]2CC[C@]2(C)C(=O)CC[C@@H]12 [FCE 24210, 4-aminoandrosta-4,6-dien-3,17-dione] | 148 nM |  | 70% | very effective when administered in vivo by oral route | unusual resistance to hepatic metabolization | 0.30 | very potent aromatase inhibitors both in vitro and in vivo | about three times lower than that of 4-OH-A | very potent aromatase inhibitors both in vitro and in vivo | very superior to that of androsta-1,4-dien-3,17-dione | about equipotent as androsta-1,4-dien-3,17-dione | about 55 times
3 | C[C@]12C=CC(=O)C=C1CC[C@@H]1[C@@H]2CC[C@]2(C)C(=O)CC[C@@H]12 [androsta-1,4-dien-3,17-dione, reference compound] |  |  | 37% |  |  |  |  |  |  |  |  | 
4 | C[C@]12C=CC(=O)C=C1CC[C@@H]1[C@@H]2CC[C@]2(C)OC(=O)CC[C@@H]12 [Δ^1 -testololactone, reference compound] | 8240 nM |  | inactive |  |  | 0.005 |  |  |  |  |  | 
